Assay results reported in patent US20260015350A1, “AZAQUINAZOLINE PAN-KRAS INHIBITORS” (Mirati Therapeutics, Inc., priority 2022, published 2026).

Tests used:
[1] = molecular target: T1, KRas^G12C (Homo sapiens, UniProt P01116, G12C); experiment: KRas binding assay (TR-FRET tracer displacement), KRas G12C; settings: for IC50: TR-FRET tracer displacement, KRas G12C
T1 construct: Biotinylated KRas (corresponding to amino acids 1-169, produced at Accelegan Inc.); biotin (biotinylated); purchased Accelegan Inc
T1 sequence (P01116 1-169 isoform P01116-2 G12C): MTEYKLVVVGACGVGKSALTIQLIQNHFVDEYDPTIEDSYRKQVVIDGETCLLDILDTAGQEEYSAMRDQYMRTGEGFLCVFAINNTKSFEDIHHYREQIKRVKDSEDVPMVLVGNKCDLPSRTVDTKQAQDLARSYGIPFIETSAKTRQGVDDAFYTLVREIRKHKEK

[2] = molecular target: T2, KRas^G12S (Homo sapiens, UniProt P01116, G12S); experiment: KRas binding assay (TR-FRET tracer displacement), KRas G12S; settings: for IC50: TR-FRET tracer displacement, KRas G12S
T2 construct: Biotinylated KRas (corresponding to amino acids 1-169, produced at Accelegan Inc.); biotin (biotinylated); purchased Accelegan Inc
T2 sequence (P01116 1-169 isoform P01116-2 G12S): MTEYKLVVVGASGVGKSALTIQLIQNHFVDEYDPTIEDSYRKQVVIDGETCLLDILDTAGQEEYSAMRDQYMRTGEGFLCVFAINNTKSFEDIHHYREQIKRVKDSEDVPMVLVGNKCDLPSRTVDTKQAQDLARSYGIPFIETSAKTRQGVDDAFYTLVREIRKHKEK

[3] = molecular target: T3, KRas^G12A (Homo sapiens, UniProt P01116, G12A); experiment: KRas binding assay (TR-FRET tracer displacement), KRas G12A; settings: for IC50: TR-FRET tracer displacement, KRas G12A
T3 construct: Biotinylated KRas (corresponding to amino acids 1-169, produced at Accelegan Inc.); biotin (biotinylated); purchased Accelegan Inc
T3 sequence (P01116 1-169 isoform P01116-2 G12A): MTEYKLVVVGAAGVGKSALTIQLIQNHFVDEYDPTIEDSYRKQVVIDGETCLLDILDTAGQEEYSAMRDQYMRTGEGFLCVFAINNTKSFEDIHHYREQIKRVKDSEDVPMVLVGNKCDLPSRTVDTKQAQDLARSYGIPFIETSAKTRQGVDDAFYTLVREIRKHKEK

[4] = system: KRas-mediated phosphorylation of ERK in H460 cells; experiment: Inhibition of KRas-mediated phosphorylation of ERK (Cisbio HTRF pERK), H460 cells; assay type: cell-based; settings: Homo sapiens; for inhibition at 0.1 µM: NCI-H460, 3 h, single point, 100 nM compound, 3 hrs
Method in brief: (§1)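 Phosphorylated ERK was quantified by HTRF using d2-conjugate and Cryptate antibodies added to lysates for 2 hrs at room temperature.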

[5] = system: KRas-mediated phosphorylation of ERK in A549 cells; experiment: Inhibition of KRas-mediated phosphorylation of ERK (Cisbio HTRF pERK), A549 cells; assay type: cell-based; settings: Homo sapiens; for inhibition at 0.1 µM: A549, 3 h, single point, 100 nM compound, 3 hrs
Method in brief: (§2)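 A cell-based HTRF pERK assay: ten-point, threefold titrations beginning at 10 uM were applied for 3 hrs, with 0.2 uM Trametinib wells as the minimum control. Cells were lysed cold, and lysate was incubated with the antibody pair for 2 hrs before reading.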

[6] = molecular target: T4, KRas^WT (Homo sapiens, UniProt P01116); experiment: KRas binding assay (TR-FRET tracer displacement), KRas WT; settings: for IC50: TR-FRET tracer displacement, KRas WT
T4 construct: Biotinylated KRas (corresponding to amino acids 1-169, produced at Accelegan Inc.); biotin (biotinylated); purchased Accelegan Inc
T4 sequence (P01116 1-169 isoform P01116-2): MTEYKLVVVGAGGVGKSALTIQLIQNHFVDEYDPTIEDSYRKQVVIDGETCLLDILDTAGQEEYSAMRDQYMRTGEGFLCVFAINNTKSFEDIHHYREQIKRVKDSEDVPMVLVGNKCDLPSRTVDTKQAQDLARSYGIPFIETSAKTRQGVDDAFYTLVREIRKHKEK

[7] = molecular target: T5, KRas^G13D (Homo sapiens, UniProt P01116, G13D); experiment: KRas binding assay (TR-FRET tracer displacement), KRas G13D; settings: for IC50: TR-FRET tracer displacement, KRas G13D
T5 construct: Biotinylated KRas (corresponding to amino acids 1-169, produced at Accelegan Inc.); biotin (biotinylated); purchased Accelegan Inc
T5 sequence (P01116 1-169 isoform P01116-2 G13D): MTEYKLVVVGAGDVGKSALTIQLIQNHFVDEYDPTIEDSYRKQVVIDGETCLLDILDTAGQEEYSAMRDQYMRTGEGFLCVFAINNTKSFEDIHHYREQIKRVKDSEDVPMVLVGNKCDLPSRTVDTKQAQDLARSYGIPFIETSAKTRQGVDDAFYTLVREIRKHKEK

[8] = molecular target: T6, KRas^G12D (Homo sapiens, UniProt P01116, G12D); experiment: KRas binding assay (TR-FRET tracer displacement), KRas G12D
T6 construct: Biotinylated KRas (corresponding to amino acids 1-169, produced at Accelegan Inc.); biotin (biotinylated); purchased Accelegan Inc
T6 sequence (P01116 1-169 isoform P01116-2 G12D): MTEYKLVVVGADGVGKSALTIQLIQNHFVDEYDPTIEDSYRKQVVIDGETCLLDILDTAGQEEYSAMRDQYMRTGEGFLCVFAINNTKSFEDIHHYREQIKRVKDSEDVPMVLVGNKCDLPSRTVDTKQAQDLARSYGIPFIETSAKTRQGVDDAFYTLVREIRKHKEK

[9] = system: KRas-mediated phosphorylation of ERK in PSN1 cells; experiment: Inhibition of KRas-mediated phosphorylation of ERK (Cisbio HTRF pERK), PSN1 cells; assay type: cell-based; settings: Homo sapiens
Method in brief: (§3)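 Day 1 seeding: 6,000 cells per well, RPMI/10% FBS, left overnight at 37° C. with 5% CO2. Plates then stood covered for 4 h at room temperature prior to HTRF detection of pERK.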

[10] = molecular target: T7, KRas^G12V (Homo sapiens, UniProt P01116, G12V); experiment: KRas binding assay (TR-FRET tracer displacement), KRas G12V
T7 construct: Biotinylated KRas (corresponding to amino acids 1-169, produced at Accelegan Inc.); biotin (biotinylated); purchased Accelegan Inc
T7 sequence (P01116 1-169 isoform P01116-2 G12V): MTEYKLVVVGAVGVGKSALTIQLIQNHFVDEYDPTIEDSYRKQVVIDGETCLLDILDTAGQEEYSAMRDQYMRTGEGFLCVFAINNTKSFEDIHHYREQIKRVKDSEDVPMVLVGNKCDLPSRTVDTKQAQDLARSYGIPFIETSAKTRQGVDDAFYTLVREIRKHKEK

[11] = system: KRas-mediated phosphorylation of ERK in AsPC-1 cells; experiment: Inhibition of KRas-mediated phosphorylation of ERK (Cisbio HTRF pERK), AsPC-1 cells; assay type: cell-based; settings: Homo sapiens; for IC50: ASPC1, AsPC-1 cells, HTRF pERK
Method in brief: as §1

[12] = system: KRas-mediated phosphorylation of ERK in H727 cells; experiment: Inhibition of KRas-mediated phosphorylation of ERK (Cisbio HTRF pERK), H727 cells; assay type: cell-based; settings: Homo sapiens; for IC50: NCI-H727, H727 cells, HTRF pERK
Method in brief: as §1

[13] = system: KRas-mediated phosphorylation of ERK in HCT116 cells; experiment: Inhibition of KRas-mediated phosphorylation of ERK (Cisbio HTRF pERK), HCT116 cells; assay type: cell-based; settings: Homo sapiens; for inhibition at 0.1 µM: HCT-116, 3 h, single point, 100 nM compound, 3 hrs
Method in brief: as §2

[14] = molecular target: T8, KRas^G12R (Homo sapiens, UniProt P01116, G12R); experiment: KRas binding assay (TR-FRET tracer displacement), KRas G12R
T8 construct: Biotinylated KRas (corresponding to amino acids 1-169, produced at Accelegan Inc.); biotin (biotinylated); purchased Accelegan Inc
T8 sequence (P01116 1-169 isoform P01116-2 G12R): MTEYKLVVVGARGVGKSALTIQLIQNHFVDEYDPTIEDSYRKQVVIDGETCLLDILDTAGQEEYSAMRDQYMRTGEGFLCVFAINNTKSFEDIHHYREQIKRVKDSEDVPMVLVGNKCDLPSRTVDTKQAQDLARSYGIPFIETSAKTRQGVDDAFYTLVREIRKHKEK

[15] = system: KRas-mediated phosphorylation of ERK in H358 cells; experiment: Inhibition of KRas-mediated phosphorylation of ERK (Cisbio HTRF pERK), H358 cells; assay type: cell-based; settings: Homo sapiens; for inhibition at 0.1 µM: NCI-H358, 3 h, single point, 100 nM compound, 3 hrs
Method in brief: as §1

[16] = system: KRas-mediated phosphorylation of ERK in MKN1 cells; experiment: Inhibition of KRas-mediated phosphorylation of ERK (Cisbio HTRF pERK), MKN1 cells; assay type: cell-based; settings: Homo sapiens, MKN-1
Method in brief: as §3

[17] = molecular target: T9, KRas^Q61H (Homo sapiens, UniProt P01116, Q61H); experiment: KRas binding assay (TR-FRET tracer displacement), KRas Q61H; settings: for IC50: TR-FRET tracer displacement, KRas Q61H
T9 construct: Biotinylated KRas (corresponding to amino acids 1-169, produced at Accelegan Inc.); biotin (biotinylated); purchased Accelegan Inc
T9 sequence (P01116 1-169 isoform P01116-2 Q61H): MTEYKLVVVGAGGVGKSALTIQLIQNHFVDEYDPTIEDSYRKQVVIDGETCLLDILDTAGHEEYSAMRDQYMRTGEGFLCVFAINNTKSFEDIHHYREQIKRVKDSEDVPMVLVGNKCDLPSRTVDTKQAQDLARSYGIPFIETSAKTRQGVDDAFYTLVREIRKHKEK

[18] = single point, 10 nM compound, TR-FRET

**Q.** For CCc1cccc2cc3[nH]ncc3c(-c3ncc4c(N5CCCC6(C5)NC(=O)NC6=O)nc(OC[C@@]56CCCN5C[C@H](F)C6)nc4c3F)c12 (stereo partly drawn) [Example 768, 7-(7-(5-ethyl-1H-benzo[f]indazol-4-yl)-8-fluoro-2-(((2R,7aS)-2-fluorohexahydro-1H-pyrrolizin-7a-yl)methoxy)pyrido[4,3-d]pyrimidin-4-yl)-1,3,7-triazaspiro[4.5]decane-2,4-dione], which IC50 [1] is on record?
**A.** Its IC50 is < 2 nM.

**Q.** What about the IC50 [2] of the same compound?
**A.** Its IC50 is < 2 nM.

**Q.** And the IC50 [3]?
**A.** The IC50 was < 2 nM.

**Q.** And the inhibition at 0.1 µM [4]?
**A.** Its inhibition at 0.1 µM is 23%.

**Q.** What about the IC50 ([4]; NCI-H460, HTRF pERK) of the same compound?
**A.** Its IC50 is 184 nM.

**Q.** What about the inhibition at 0.1 µM [5] of the same compound?
**A.** The inhibition at 0.1 µM was 30%.

**Q.** What about the IC50 ([5]; HTRF pERK) of the same compound?
**A.** The IC50 was 708 nM.

**Q.** What about the IC50 [6] of the same compound?
**A.** Its IC50 is < 2 nM.

**Q.** And the IC50 [7]?
**A.** Its IC50 is < 2 nM.

**Q.** And the IC50 [8]?
**A.** Its IC50 is 3 nM.

**Q.** What about the IC50 [9] of the same compound?
**A.** The IC50 was > 10000 nM.

**Q.** What about the IC50 [10] of the same compound?
**A.** Its IC50 is < 2 nM.

**Q.** And the IC50 [11]?
**A.** Its IC50 is 434 nM.

**Q.** What about the IC50 [12] of the same compound?
**A.** The IC50 was 275 nM.

**Q.** What about the inhibition at 0.1 µM [13] of the same compound?
**A.** Its inhibition at 0.1 µM is 8%.

**Q.** What about the IC50 ([13]; HCT-116, HTRF pERK) of the same compound?
**A.** Its IC50 is 397 nM.

**Q.** What about the IC50 [14] of the same compound?
**A.** The IC50 was < 2 nM.

**Q.** And the inhibition at 0.1 µM [15]?
**A.** The inhibition at 0.1 µM was 59%.

**Q.** What about the IC50 ([15]; NCI-H358, HTRF pERK) of the same compound?
**A.** Its IC50 is 38 nM.

**Q.** What about the IC50 [16] of the same compound?
**A.** The IC50 was 22 nM.

**Q.** What about the IC50 [17] of the same compound?
**A.** Its IC50 is < 2 nM.

**Q.** CCc1c(F)ccc2cc(O)cc(-c3ncc4c(N5CC6CC(O)C(C6)C5)nc(OC[C@]56CCCN5[C@H](COC(=O)N(C)C)CC6)nc4c3F)c12 (stereo partly drawn) [Example 707, ((3S,7aR)-7a-(((7-(8-ethyl-7-fluoro-3-hydroxynaphthalen-1-yl)-8-fluoro-4-(6-hydroxy-3-azabicyclo[3.2.1]octan-3-yl)pyrido[4,3-d]pyrimidin-2-yl)oxy)methyl)hexahydro-1H-pyrrolizin-3-yl)methyl dimethylcarbamate] was tested. Which inhibition at 0.01 µM [1, 18] did it give?
**A.** Its inhibition at 0.01 µM is 84%.

**Q.** What about the inhibition at 0.01 µM [2, 18] of the same compound?
**A.** The inhibition at 0.01 µM was 85%.

**Q.** What about the inhibition at 0.01 µM [3, 18] of the same compound?
**A.** The inhibition at 0.01 µM was 76%.

**Q.** And the inhibition at 0.1 µM [4]?
**A.** Its inhibition at 0.1 µM is 84%.

**Q.** And the inhibition at 0.1 µM [5]?
**A.** The inhibition at 0.1 µM was 71%.

**Q.** What about the inhibition at 0.01 µM [6, 18] of the same compound?
**A.** Its inhibition at 0.01 µM is 76%.

**Q.** And the inhibition at 0.01 µM [7, 18]?
**A.** Its inhibition at 0.01 µM is 85%.

**Q.** And the IC50 [8]?
**A.** Its IC50 is 9 nM.

**Q.** What about the IC50 [9] of the same compound?
**A.** The IC50 was 4410 nM.

**Q.** What about the IC50 [10] of the same compound?
**A.** The IC50 was 4 nM.

**Q.** What about the IC50 [11] of the same compound?
**A.** Its IC50 is 79 nM.

**Q.** And the IC50 [12]?
**A.** Its IC50 is 24 nM.

**Q.** What about the inhibition at 0.1 µM [13] of the same compound?
**A.** The inhibition at 0.1 µM was 47%.

**Q.** What about the IC50 [14] of the same compound?
**A.** Its IC50 is < 2 nM.

**Q.** What about the inhibition at 0.1 µM [15] of the same compound?
**A.** The inhibition at 0.1 µM was 88%.

**Q.** And the IC50 [16]?
**A.** Its IC50 is 2 nM.

**Q.** And the inhibition at 0.01 µM [17, 18]?
**A.** Its inhibition at 0.01 µM is 85%.

**Q.** Which IC50 [1] does the source give for O=S1(=O)CCC2(CCCN(c3nc(OC[C@@]45CCCN4C[C@H](F)C5)nc4c(F)c(-c5cc(O)cc6cccc(Cl)c56)ncc34)C2)N1 (stereo partly drawn) [Example 604, 7-(7-(8-chloro-3-hydroxynaphthalen-1-yl)-8-fluoro-2-(((2R,7aS)-2-fluorohexahydro-1H-pyrrolizin-7a-yl)methoxy)pyrido[4,3-d]pyrimidin-4-yl)-2-thia-1,7-diazaspiro[4.5]decane 2,2-dioxide] here?
**A.** Its IC50 is < 2 nM.

**Q.** And the IC50 [2]?
**A.** Its IC50 is < 2 nM.

**Q.** And the IC50 [3]?
**A.** The IC50 was 2 nM.

**Q.** And the inhibition at 0.1 µM [4]?
**A.** The inhibition at 0.1 µM was 69%.

**Q.** And the inhibition at 0.1 µM [5]?
**A.** Its inhibition at 0.1 µM is 27%.

**Q.** What about the IC50 [6] of the same compound?
**A.** Its IC50 is < 2 nM.

**Q.** And the IC50 [7]?
**A.** The IC50 was < 2 nM.

**Q.** And the IC50 [8]?
**A.** The IC50 was < 2 nM.

**Q.** What about the IC50 [9] of the same compound?
**A.** The IC50 was 425 nM.

**Q.** And the IC50 [10]?
**A.** The IC50 was < 2 nM.

**Q.** And the inhibition at 0.1 µM ([11]; ASPC1, 3 h, single point, 100 nM compound, 3 hrs, AsPC-1 cells)?
**A.** The inhibition at 0.1 µM was 53%.

**Q.** What about the IC50 [11] of the same compound?
**A.** Its IC50 is 81 nM.

**Q.** What about the inhibition at 0.1 µM ([12]; NCI-H727, 3 h, single point, 100 nM compound, 3 hrs, H727 cells) of the same compound?
**A.** Its inhibition at 0.1 µM is 47%.

**Q.** And the IC50 [12]?
**A.** The IC50 was 71 nM.

**Q.** What about the inhibition at 0.1 µM [13] of the same compound?
**A.** The inhibition at 0.1 µM was 64%.

**Q.** And the IC50 [14]?
**A.** Its IC50 is < 2 nM.

**Q.** And the inhibition at 0.1 µM [15]?
**A.** The inhibition at 0.1 µM was 94%.

**Q.** And the IC50 [16]?
**A.** The IC50 was 2 nM.

**Q.** And the IC50 [17]?
**A.** The IC50 was < 2 nM.
